The source of these data is patent US9371265B2, “Compositions and methods related to inhibitors of JAK kinase” (EP PHARMA, INC., priority 2012, dated 2016).

Structures are written as SMILES.

Assay [1] deals with EGFR(L858R) (Homo sapiens, UniProt P00533, L858R). In words: Kinase panel: EGFR(L858R). It is filed as biochemical. As to conditions: 10 μM EP009. How it is done: (§1) Achieving JAK3 selectivity remains a significant challenge in the development of new small molecules for the treatment of cancer and immune-derived diseases. As such, the inventors employed cell-based screening assays of small-molecule libraries based upon the chemical scaffold of the established JAK3 inhibitor NC1153 (Stepkowski et al., J Immunol. (2005), 175(7):4236-4246) EP009 (FIG. 2A) was selected as a lead compound due to improved intrinsic stability (>95% purity in various solvents at 37° C. for 24 hours; FIG. 3) and high-degree of JAK3 selectivity. To test JAK3 versus JAK2 specificity of EP009, the IL-2/JAK3-dependent Kit225, and IL-3/JAK2-dependent BaF/3 cell lines were used. Kit225 and BaF/3 cells growing in the presence of IL-2 or IL-3, respectively, were treated with ascending concentrations of EP009 for 12 hours and cellular JAK3 and JAK2 tyrosine phosphorylation levels detected by Western blot analysis (FIGS. 2B and 2C). Following densitometric analysis, EP009 was determined to dose-dependently reduce IL-2-mediated JAK3 tyrosine phosphorylation with a cellular 50% inhibitory concentration (IC50) between 10 and 20 μM (FIG. 2B). […] To globally evaluate specificity, the inhibitory activity of EP009 was measured against a panel of protein kinases distributed throughout the kinome using the scanEDGE profiling service (KINOMEscan). […]

In assay [2] the target is MKNK2 (Homo sapiens, UniProt Q9HBH9). Briefly: Kinase panel: MKNK2. Type of assay: biochemical. As to conditions: 10 μM EP009. The procedure: as §1
For assay [3], the target named is BMPR2 (Homo sapiens, UniProt Q13873). Briefly: Kinase panel: BMPR2. Type of assay: biochemical. To be noted: 10 μM EP009. The procedure:
as §1

Assay [4] has as its system H2228. In words: H2228 cell viability (MTS). Type of assay: cell-based, human. As to conditions: 0-10 μM, 72 hours. How it is done:
FIGS. 7A-7C. EP009 reduces ALCL cell viability through induction of caspase 3 mediated apoptosis. (A) SUP-M2, SU-DHL-1 or H2228 cells were cultured with increasing amounts of EP009 (0-10 μM) for 72 hours and cell viability measured with the MTS tetrazolium salt assay. Values represent mean absorbance (OD490-OD650 nm) normalized to vehicle (PBS) treated control cells, while error bars represent the standard deviation (n=3). (B) SU-DHL-1 cells were treated with vehicle (PBS) or increasing amounts of EP009 (0-50 μM) for 24 hours. Cells were then lysed, clarified, and subjected to Luminex multiplex analysis to detect activated caspase 3 and (C) cleaved PARP. Values represent MFI normalized to corresponding GAPDH MFI, while error bars represent the standard deviation (n=2). Representative data from three independent experiments are shown. Statistical significance was determined using Student's t-test. (*, p<0.05).
Cell viability was assessed with 3-(4,5-dimethylthiazol-2-yl)-5-(3-carboxymethoxyphenyl)-2-(4-sulfophenyl)-2H-tetrazolium salt (MTS) reagent (Promega) in triplicates according to the manufacturer's instructions. Three independent experiments were performed. The error bars represent standard deviation.

Assay [5] concerns the target MKNK1 (Homo sapiens, UniProt Q9BUB5). In words: Kinase panel: MKNK1. Type of assay: biochemical. To be noted: 10 μM EP009. The procedure:
as §1

Assay [6] addresses FLT3 (Homo sapiens, UniProt P36888). Briefly: Kinase panel: FLT3. It is filed as biochemical. As to conditions: 10 μM EP009. How it is done:
as §1

Assay [7] concerns the target PDPK1 (Homo sapiens, UniProt O15530). In words: Kinase panel: PDPK1. As to conditions: 10 μM EP009. Type of assay: biochemical. The procedure:
as §1

In assay [8] the target is MEK2 (Homo sapiens, UniProt P36507). In words: Kinase panel: MEK2. Type of assay: biochemical. As to conditions: 10 μM EP009. The procedure: as §1
Sequence of MEK2 (P36507 whole entry): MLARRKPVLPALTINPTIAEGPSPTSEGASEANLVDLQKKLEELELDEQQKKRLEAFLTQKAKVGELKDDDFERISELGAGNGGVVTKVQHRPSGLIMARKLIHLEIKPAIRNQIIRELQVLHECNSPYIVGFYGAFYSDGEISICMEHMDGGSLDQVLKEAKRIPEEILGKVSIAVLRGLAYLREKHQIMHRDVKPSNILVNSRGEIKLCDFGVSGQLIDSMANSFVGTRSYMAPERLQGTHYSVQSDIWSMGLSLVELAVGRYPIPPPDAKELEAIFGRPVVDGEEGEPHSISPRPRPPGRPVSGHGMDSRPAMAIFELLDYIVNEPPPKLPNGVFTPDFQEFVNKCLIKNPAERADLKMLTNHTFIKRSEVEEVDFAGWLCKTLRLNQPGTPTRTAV
Assay [9] addresses PLK4 (Homo sapiens, UniProt O00444). In words: Kinase panel: PLK4. It is filed as biochemical. To be noted: 10 μM EP009. The procedure:
as §1

Assay [10] has as its target ACVR1B (Homo sapiens, UniProt P36896). In words: Kinase panel: ACVR1B. To be noted: 10 μM EP009. Type of assay: biochemical. How it is done:
as §1

Assay [11] concerns the target MEK1 (Homo sapiens, UniProt Q02750). In words: Kinase panel: MEK1. It is filed as biochemical. As to conditions: 10 μM EP009. How it is done: as §1
Assay [12] concerns the target AURKA (Homo sapiens, UniProt O14965). In words: Kinase panel: AURKA. Type of assay: biochemical. To be noted: 10 μM EP009. The procedure: as §1
Assay [13] has as its target KIT(V559D, T670I) (Homo sapiens, UniProt P10721, T670I/V559D). Briefly: Kinase panel: KIT(V559D, T670I). To be noted: 10 μM EP009. It is filed as biochemical. The procedure:
as §1

Assay [14] deals with ERBB2 (Homo sapiens, UniProt P04626). Briefly: Kinase panel: ERBB2. It is filed as biochemical. To be noted: 10 μM EP009. The procedure: as §1
Sequence of ERBB2 (P04626 23-1255): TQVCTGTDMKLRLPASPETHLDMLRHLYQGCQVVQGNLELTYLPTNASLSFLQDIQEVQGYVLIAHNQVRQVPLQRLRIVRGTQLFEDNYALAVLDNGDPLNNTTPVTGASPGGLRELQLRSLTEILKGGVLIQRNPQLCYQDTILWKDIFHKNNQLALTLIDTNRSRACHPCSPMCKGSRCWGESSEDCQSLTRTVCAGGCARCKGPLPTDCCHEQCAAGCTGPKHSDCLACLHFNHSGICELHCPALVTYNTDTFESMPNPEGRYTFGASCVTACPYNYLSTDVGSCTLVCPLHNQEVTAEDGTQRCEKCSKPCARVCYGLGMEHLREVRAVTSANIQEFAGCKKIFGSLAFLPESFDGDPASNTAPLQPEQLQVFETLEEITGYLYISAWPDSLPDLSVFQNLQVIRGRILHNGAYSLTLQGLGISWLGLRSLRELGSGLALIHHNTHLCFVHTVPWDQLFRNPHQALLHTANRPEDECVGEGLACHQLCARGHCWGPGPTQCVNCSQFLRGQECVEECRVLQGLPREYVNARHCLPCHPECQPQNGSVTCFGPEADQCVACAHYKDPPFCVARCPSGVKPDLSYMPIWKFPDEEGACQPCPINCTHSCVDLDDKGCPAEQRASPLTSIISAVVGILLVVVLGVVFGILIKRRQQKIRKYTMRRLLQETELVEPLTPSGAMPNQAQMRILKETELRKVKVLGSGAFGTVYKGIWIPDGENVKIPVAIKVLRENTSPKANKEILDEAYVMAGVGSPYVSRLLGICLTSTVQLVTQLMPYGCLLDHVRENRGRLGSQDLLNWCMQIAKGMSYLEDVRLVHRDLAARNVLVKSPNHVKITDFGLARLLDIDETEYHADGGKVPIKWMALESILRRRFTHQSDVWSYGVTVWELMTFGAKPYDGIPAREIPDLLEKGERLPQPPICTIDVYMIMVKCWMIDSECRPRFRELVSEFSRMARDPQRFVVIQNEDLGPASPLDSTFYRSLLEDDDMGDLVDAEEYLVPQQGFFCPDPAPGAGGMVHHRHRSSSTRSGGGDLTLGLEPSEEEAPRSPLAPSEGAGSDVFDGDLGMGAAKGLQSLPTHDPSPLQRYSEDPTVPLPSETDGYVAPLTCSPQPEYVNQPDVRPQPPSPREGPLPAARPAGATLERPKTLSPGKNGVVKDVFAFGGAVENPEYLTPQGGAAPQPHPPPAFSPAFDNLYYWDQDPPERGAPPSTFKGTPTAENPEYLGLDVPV
Assay [15] addresses AKT1 (Homo sapiens, UniProt P31749). In words: Kinase panel: AKT1. To be noted: 10 μM EP009. Type of assay: biochemical. How it is done: as §1
In assay [16] the target is PIM1 (Homo sapiens, UniProt P11309). In words: Kinase panel: PIM1. Type of assay: biochemical. To be noted: 10 μM EP009. The procedure: as §1
Assay [17] deals with CDK9 (Homo sapiens, UniProt P50750). In words: Kinase panel: CDK9. As to conditions: 10 μM EP009. Type of assay: biochemical. The procedure:
as §1

Assay [18] deals with TRKA (Homo sapiens, UniProt P04629). In words: Kinase panel: TRKA. It is filed as biochemical. To be noted: 10 μM EP009. The procedure:
as §1

Assay [19] deals with ABL1(T315I)-phosphorylated (Homo sapiens, UniProt P00519, T315I). In words: Kinase panel: ABL1(T315I)-phosphorylated. Type of assay: biochemical. As to conditions: 10 μM EP009. How it is done: as §1

Sequence of PLK4 (O00444 whole entry): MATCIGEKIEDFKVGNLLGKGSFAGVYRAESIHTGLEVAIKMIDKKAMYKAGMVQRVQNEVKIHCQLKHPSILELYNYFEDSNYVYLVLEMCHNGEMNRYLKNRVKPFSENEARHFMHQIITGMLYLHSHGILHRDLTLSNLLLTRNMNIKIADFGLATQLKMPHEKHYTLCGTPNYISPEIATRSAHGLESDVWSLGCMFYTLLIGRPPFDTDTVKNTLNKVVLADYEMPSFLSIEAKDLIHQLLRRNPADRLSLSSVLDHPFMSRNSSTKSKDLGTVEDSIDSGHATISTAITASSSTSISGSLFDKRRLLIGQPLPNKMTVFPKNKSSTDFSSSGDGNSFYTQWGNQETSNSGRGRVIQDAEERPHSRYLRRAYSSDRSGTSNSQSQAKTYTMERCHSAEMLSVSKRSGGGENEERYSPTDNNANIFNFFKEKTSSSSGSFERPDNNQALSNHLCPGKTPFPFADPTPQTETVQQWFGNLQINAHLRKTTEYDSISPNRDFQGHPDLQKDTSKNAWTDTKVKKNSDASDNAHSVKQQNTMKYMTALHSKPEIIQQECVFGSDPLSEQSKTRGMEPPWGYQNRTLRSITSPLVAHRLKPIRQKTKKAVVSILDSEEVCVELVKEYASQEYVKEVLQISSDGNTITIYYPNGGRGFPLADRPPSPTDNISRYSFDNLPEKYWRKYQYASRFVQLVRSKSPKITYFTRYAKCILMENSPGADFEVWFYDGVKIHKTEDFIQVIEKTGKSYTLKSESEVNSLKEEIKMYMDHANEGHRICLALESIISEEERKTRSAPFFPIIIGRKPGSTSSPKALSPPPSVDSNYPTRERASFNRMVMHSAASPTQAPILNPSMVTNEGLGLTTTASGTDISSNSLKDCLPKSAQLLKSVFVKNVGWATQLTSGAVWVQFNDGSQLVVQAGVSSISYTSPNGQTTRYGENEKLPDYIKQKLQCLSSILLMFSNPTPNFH
Sequence of AURKA (O14965 whole entry): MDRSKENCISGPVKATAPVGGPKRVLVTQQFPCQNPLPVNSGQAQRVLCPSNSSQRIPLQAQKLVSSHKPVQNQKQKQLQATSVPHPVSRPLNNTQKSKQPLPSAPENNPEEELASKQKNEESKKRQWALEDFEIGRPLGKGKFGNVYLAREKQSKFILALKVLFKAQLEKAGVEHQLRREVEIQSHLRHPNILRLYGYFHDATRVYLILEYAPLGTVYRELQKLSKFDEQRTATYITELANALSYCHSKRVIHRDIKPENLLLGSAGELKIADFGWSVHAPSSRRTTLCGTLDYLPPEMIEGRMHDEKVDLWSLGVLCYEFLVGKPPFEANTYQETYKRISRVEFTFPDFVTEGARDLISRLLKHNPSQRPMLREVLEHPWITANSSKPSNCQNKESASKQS
Sequence of AKT1 (P31749 whole entry): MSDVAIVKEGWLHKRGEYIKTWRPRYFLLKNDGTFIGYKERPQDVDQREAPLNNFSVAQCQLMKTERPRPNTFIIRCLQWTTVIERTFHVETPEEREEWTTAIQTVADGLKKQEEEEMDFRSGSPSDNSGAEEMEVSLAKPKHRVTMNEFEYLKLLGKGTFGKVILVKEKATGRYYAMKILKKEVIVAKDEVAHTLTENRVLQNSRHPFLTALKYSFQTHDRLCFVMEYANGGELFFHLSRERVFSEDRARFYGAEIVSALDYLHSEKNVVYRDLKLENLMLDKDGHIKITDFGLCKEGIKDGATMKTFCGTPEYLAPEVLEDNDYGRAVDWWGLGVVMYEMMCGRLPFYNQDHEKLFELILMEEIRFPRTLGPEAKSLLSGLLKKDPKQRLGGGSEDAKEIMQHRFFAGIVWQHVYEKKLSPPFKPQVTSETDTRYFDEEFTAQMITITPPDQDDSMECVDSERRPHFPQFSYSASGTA
Sequence of CDK9 (P50750 whole entry): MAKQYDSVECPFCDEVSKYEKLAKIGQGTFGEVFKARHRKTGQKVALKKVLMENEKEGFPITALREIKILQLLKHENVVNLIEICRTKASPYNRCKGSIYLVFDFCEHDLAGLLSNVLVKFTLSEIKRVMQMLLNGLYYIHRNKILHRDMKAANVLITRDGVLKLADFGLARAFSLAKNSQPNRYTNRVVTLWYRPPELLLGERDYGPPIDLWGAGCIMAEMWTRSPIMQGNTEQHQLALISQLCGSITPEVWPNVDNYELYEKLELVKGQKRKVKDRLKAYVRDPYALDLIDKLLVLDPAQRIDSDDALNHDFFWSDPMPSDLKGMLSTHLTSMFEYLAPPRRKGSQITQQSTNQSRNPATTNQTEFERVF
Sequence of BMPR2 (Q13873 27-1038): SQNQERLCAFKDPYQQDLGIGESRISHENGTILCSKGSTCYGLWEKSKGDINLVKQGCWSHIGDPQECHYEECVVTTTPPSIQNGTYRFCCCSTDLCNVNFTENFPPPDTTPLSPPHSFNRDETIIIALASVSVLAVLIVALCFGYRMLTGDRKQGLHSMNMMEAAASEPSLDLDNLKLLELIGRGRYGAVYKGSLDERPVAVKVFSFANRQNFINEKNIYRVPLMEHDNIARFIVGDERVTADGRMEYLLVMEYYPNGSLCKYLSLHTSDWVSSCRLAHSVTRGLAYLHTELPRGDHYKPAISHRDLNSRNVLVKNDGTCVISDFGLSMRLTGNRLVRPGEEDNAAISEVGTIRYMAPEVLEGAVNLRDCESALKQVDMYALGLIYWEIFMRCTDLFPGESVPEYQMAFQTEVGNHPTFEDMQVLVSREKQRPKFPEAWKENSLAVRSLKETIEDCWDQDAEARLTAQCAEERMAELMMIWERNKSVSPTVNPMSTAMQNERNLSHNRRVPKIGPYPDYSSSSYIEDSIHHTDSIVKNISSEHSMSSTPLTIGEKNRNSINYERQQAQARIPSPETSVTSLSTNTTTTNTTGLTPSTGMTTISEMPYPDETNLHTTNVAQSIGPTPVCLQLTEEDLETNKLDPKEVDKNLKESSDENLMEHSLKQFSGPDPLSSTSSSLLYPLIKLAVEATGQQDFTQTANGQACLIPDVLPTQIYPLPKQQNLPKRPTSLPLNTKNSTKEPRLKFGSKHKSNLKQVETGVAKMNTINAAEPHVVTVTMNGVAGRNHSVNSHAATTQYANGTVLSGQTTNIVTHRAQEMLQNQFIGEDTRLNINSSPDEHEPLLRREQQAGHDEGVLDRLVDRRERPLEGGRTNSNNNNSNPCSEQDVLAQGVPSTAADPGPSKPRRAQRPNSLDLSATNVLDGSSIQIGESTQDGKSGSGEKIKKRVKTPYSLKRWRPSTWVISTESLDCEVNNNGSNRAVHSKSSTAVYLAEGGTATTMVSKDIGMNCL

With `C=C1CCCCCCCCCC(CO)C1=O` (stereo not drawn) [EP009, 2-(Hydroxymethyl)-12-methylenecyclododecanone], the “Kinase Activity (% of Control)” value was 100 % of Control in assay [1]; 100 % of Control in assay [2]; 75 % of Control in [3]; 100 % of Control in assay [5]; 99 % of Control in [6]; 100 % of Control in assay [7]. The “Kinase Activity (% of Control)” value in assay [8] is recorded as 84 % of Control; in [9] (PLK4) it was 53 % of Control; in [10] it was 96 % of Control; in [11], 71 % of Control; in assay [12] (AURKA), 55 % of Control; in assay [13], 94 % of Control. The “Kinase Activity (% of Control)” value in [14] is given as 100 % of Control; in assay [15], 100 % of Control; in assay [16], 100 % of Control; in assay [17], 90 % of Control; in [18], 65 % of Control; in assay [19], 100 % of Control. The “effect on H2228 cell viability” value in assay [4] is “no effect”. Besides, in [9], the “inhibition of Polo-like kinase 4 (PLK4)” value is listed as 47 % inhibition. Further, the “inhibition of Aurora kinase A (AURKA)” value in assay [12] is 45 % inhibition.
